In patent publication US20070244202A1, “Ampk Activator” (KAO CORPORATION, priority 2004, published 2007):

How the values were obtained:
[1] = tested on: AMPK (AMP-activated protein kinase); test: AMPK activation evaluated by phosphorylation of AMPK α and β (Western blot) in mouse hepatocyte line Hepa 1-6; type: cell-based; conditions: Hepa 1-6 cells
Experimental: The AMPK activation effect of resveratrol was evaluated on the basis of phosphorylation of AMPK α and β through the below-described method by use of a mouse hepatocyte line (Hepa 1-6). Mouse hepatocyte cells (Hepa 1-6) were seeded in a 25-cm^2 flask, and cultured in DMEM (+10% FBS, +antibacterial agent) at 37° C. for one to two days. The culture medium was removed when the cells became subconfluent, and the cells were washed with PBS (−), followed by replacement with DMEM (−FBS) and further culturing for one day. After the culture medium was removed, DMEM (−FBS) containing a predetermined amount of resveratrol was added, followed by culturing for 60 minutes. Thereafter, the culture medium was removed, and the cells were washed with PBS (−), followed by addition of 200 μL of a cytolytic solution (10 mmol/L Tris (pH 7.4), 50 mmol/L sodium chloride, 30 mmol/L sodium pyrophosphate, 0.5 mass % Triton X-100, protease inhibitor cocktail (SIGMA P2714), phosphatase inhibitor cocktail-2 (SIGMA P5726)). The resultant cell lysate was collected with a cell scraper. The thus-collected cell lysate was thoroughly homogenized by passing it through a syringe using a 23-G needle (3 times), and then the cell lysate was allowed to stand on ice for 30 minutes. […] After the concentration of the supernatant protein was measured, the protein concentration was regulated to a constant level between samples. […] Thereafter, phospho-AMPK was detected by use of anti-phospho-AMPKα (Thr72) antibody (product of Cell Signaling) or anti-phospho-AMPKβ (Ser108) antibody (product of Cell Signaling) serving as a primary antibody, anti-rabbit-HRP antibody (product of Amersham) serving as a secondary antibody, and phototope-HRP Western Detection System (product of Cell Signaling) serving as a detection reagent. The intensity of the thus-detected band was converted into numerical data (pixels) through image analysis (EDAS 290 image analysis system: KODAK), and the degree of AMPK activation was calculated relative to the control (i.e., group containing no sample), which was taken as 100. […]

C57BL/6 male mice = test: Efficacy of resveratrol in mice fed a high-fat diet for 24 weeks (body, fat and liver weight, blood analysis); type: in vivo, mouse
Experimental: Seven-week-old C57BL/6 male mice (CLEA Japan, Inc.) were employed, and the animals were divided into three groups, each containing 10 to 15 animals. Twenty-four weeks after initiation of the test, body weight was measured, and blood was collected under anesthesia and non-fasting conditions for measurement of plasma glucose, cholesterol, insulin, and leptin. In addition, visceral fat weight (epididymal fat, retroperitoneal fat, and perirenal fat) and liver weight were measured. In Example 3, resveratrol manufactured by Cayman was employed. [table]

[2] = tested on: AMPK (AMP-activated protein kinase); test: AMPK activation evaluated by phosphorylation of AMPK α and β (Western blot) in mouse muscle cell line C2C12; type: cell-based
Experimental: The AMPK activation effect of resveratrol was evaluated on the basis of phosphorylation of AMPK α and β through the below-described method by use of a mouse muscle cell line (C2C12). Mouse muscle cells (C2C12) were seeded in a 25-cm^2 flask, and cultured in DMEM (+10% FBS, +antibacterial agent) at 37° C. for one to two days. The culture medium was removed when the cells reached confluent, and the cells were washed with PBS (−), followed by replacement with DMEM (2 mass % Horse serum) and further culturing for seven to eight days while the culture medium was exchanged every two or three days. Thereafter, the culture medium was removed, and the cells were washed with PBS (−), followed by replacement with DMEM (−FBS) and further culturing for one day. After the culture medium was removed, DMEM (−FBS) containing a predetermined amount of resveratrol was added, followed by culturing for 60 minutes. […] After the concentration of the supernatant protein was measured, the protein concentration was regulated to a constant level between samples. […] Thereafter, phospho-AMPK was detected by use of anti-phospho-AMPKα (Thr72) antibody (product of Cell Signaling) or anti-phospho-AMPKβ (Ser108) antibody (product of Cell Signaling) serving as a primary antibody, anti-rabbit-HRP antibody (product of Amersham) serving as a secondary antibody, and phototope-HRP Western Detection System (product of Cell Signaling) serving as a detection reagent. The intensity of the thus-detected band was converted into numerical data (pixels) through image analysis (EDAS 290 image analysis system: KODAK), and the degree of AMPK activation was calculated relative to the control (i.e., group containing no sample), which was taken as 100. […]

[3] = tested on: lipid metabolism activity (β-oxidation activity); test: Lipid metabolism activating effect: lipid degradation (β-oxidation) activity of liver and skeletal muscle after oral administration; type: in vivo, mouse
Experimental: Seven-week-old Balb/c male mice were divided into two groups, and saline (control) or resveratrol (200 mg/kg body weight) was orally administered for 10 consecutive days. Thereafter, the liver and skeletal muscle (gastrocnemius muscle+soleus muscle) were collected from each of the animals. Each of the thus-collected liver and skeletal muscle was homogenized in buffer (250 mM sucrose, 1 mM EDTA in 10 mM HEPES (pH 7.2)), and insoluble tissue residues were centrifugally separated, whereby a supernatant was obtained. The thus-obtained supernatant was subjected to measurement of protein content, and the protein content was regulated to a constant level between samples. Each of the resultant samples was employed for measurement of lipid metabolism activity (β-oxidation activity). The supernatant protein (100 μg) was reacted with 0.1 μCi [^14C]-palmitic acid at 37° C. for 20 minutes in 200 μL (final volume) of buffer (50 mM Tris-HCl (pH 8.0), 40 mM NaCl, 2 mM KCl, 2 mM MgCl2, 1 mM DTT, 5 mM ATP, 0.2 mM L-carnitine, 0.2 mM NAD, 0.06 mM FAD, 0.12 mM CoA, 3 mM α-cyclodextrin). The reaction was stopped with 200 μL of 0.6 N perchloric acid, and then unreacted [^14C]-palmitic acid was removed three times with hexane (1 mL). Lipid degradation activity was evaluated through measurement of the radioactivity of the aqueous layer.
Lipid degradation activity was calculated relative to that of the control, which was taken as 100. […] As is clear from the test results, resveratrol is effective for activation of lipid metabolism.

[4] = 0.2% resveratrol in high-fat diet vs high-fat diet, P<0.01
[5] = 0.2% resveratrol in high-fat diet vs high-fat diet, P<0.05

Oc1ccc(/C=C/c2cc(O)cc(O)c2)cc1 [Resveratrol, 3,4′,5-trihydroxy-trans-stilbene]
Phospho-AMPKα (degree of AMPK activation relative to control taken as 100) ([1]; resveratrol 150 μmol/L, 60 minutes, anti-phospho-AMPKα (Thr72) antibody, control = 100): 538 | Phospho-AMPKβ (degree of AMPK activation relative to control taken as 100) ([1]; resveratrol 150 μmol/L, 60 minutes, anti-phospho-AMPKβ (Ser108) antibody, control = 100): 168 | AMPK activation effect (in words) ([1]; summary of Table 1): potent AMPK activation effect | Blood insulin level, group 3 compared with group 2 (in words) (C57BL/6 male mice; 0.2% resveratrol in high-fat diet vs high-fat diet): lower than that in group 2 | Body weight, group 3 compared with group 2 (in words) (C57BL/6 male mice; 0.2% resveratrol in high-fat diet vs high-fat diet, P<0.001): significantly lower than that in group 2 | Blood leptin level, group 3 compared with group 2 (in words) (C57BL/6 male mice; [4]): significantly lower than that in group 2 | Visceral fat weight, group 3 compared with group 2 (in words) (C57BL/6 male mice; [4]): significantly lower than that in group 2 | Liver weight, group 3 compared with group 2 (in words) (C57BL/6 male mice; [5]): significantly lower than that in group 2 | Total cholesterol level, group 3 compared with group 2 (in words) (C57BL/6 male mice; [5]): significantly lower than that in group 2 | Blood glucose level, group 3 compared with group 2 (in words) (C57BL/6 male mice; 0.2% resveratrol in high-fat diet vs high-fat diet, P<0.1): lower than that in group 2 | Visceral fat weight (C57BL/6 male mice; Group 3: high-fat diet with 0.2% resveratrol, epididymal, retroperitoneal and perirenal fat, group 1 0.88, group 2 2.17): 1.00 g | Liver weight (C57BL/6 male mice; Group 3: high-fat diet with 0.2% resveratrol, group 1 1.34, group 2 1.62): 1.39 g | Body weight (C57BL/6 male mice; Group 3: high-fat diet with 0.2% resveratrol, group 1 (low-fat) 32.2, group 2 (high-fat) 38.8): 32.1 g | Leptin (C57BL/6 male mice; Group 3: high-fat diet with 0.2% resveratrol, plasma, non-fasting, group 1 1.43, group 2 6.19): 1.79 ng/mL | Insulin (C57BL/6 male mice; Group 3: high-fat diet with 0.2% resveratrol, plasma, non-fasting, group 1 2.52, group 2 3.38): 2.03 ng/mL | Total cholesterol (C57BL/6 male mice; Group 3: high-fat diet with 0.2% resveratrol, plasma, non-fasting, group 1 58, group 2 76): 60 mg/dL | Glucose (C57BL/6 male mice; Group 3: high-fat diet with 0.2% resveratrol, plasma, non-fasting, group 1 133, group 2 191): 162 mg/dL | Phospho-AMPKα (degree of AMPK activation relative to control taken as 100) ([2]; C2C12 cells, resveratrol 150 μmol/L, 60 minutes, anti-phospho-AMPKα (Thr72) antibody, control = 100): 848 | Phospho-AMPKβ (degree of AMPK activation relative to control taken as 100) ([2]; C2C12 cells, resveratrol 150 μmol/L, 60 minutes, anti-phospho-AMPKβ (Ser108) antibody, control = 100): 425 | AMPK activation effect in muscle cells (in words) ([2]; summary of Table 2): potent AMPK activation effect | Lipid degradation activity (β-oxidation activity) of skeletal muscle relative to control taken as 100 ([3]; Balb/c male mice, resveratrol 200 mg/kg body weight orally for 10 consecutive days, gastrocnemius + soleus muscle homogenate, [14C]-palmitic acid, control = 100): 243 | Lipid degradation activity (β-oxidation activity) of liver relative to control taken as 100 ([3]; Balb/c male mice, resveratrol 200 mg/kg body weight orally for 10 consecutive days, liver homogenate, [14C]-palmitic acid, control = 100): 323 | Lipid degradation activity (β-oxidation activity) of the liver and skeletal muscle (in words) ([3]; resveratrol 200 mg/kg orally for 10 days vs saline control, liver p<0.001, muscle p<0.001): considerably increases
